Drawing on the RepoRT retention time repository (doi:10.1021/acs.analchem.1c00972), this text covers LC retention time for 53 compounds.

The nature of data set [1]: RP, Waters ACQUITY UPLC BEH C18, 100 × 1 mm, 1.7 µm, 50 °C, 0.3 mL/min, estimated dead time 0.17 min; A: water + 10 mM ammonium bicarbonate; B: 10% water + 90% methanol + 10 mM ammonium bicarbonate; gradient (min/%B) 0/0 15/100 21/100 22/0 30/0. The following applies: stereoisomer not certain.
Data set [2] in a line: RP, Waters ACQUITY UPLC BEH C18, 100 × 1 mm, 1.7 µm, 50 °C, 0.3 mL/min, estimated dead time 0.17 min; A: water + 0.1% formic acid + 20 mM ammonium formate; B: methanol + 0.1% formic acid + 20 mM ammonium formate; gradient (min/%B) 0/0 15/100 21/100 22/0 30/0. The following applies: stereoisomer not certain.

As to `CC(Cl)COP(=O)(OCC(C)Cl)OCC(C)Cl` (stereo unspecified) [Tris(2-chloropropyl) phosphate], the values for the LC retention time in data set [1] and in data set [2] were 14.6 min and 14.4 min, respectively.
For `O=C(O)c1cn(C2CC2)c2cc(N3CCNCC3)c(F)cc2c1=O` [Ciprofloxacin] the same measures were 7.67 min and 8.34 min.
In the same order, the values of `CCOC(=O)C1=NOC(c2ccccc2)(c2ccccc2)C1` [Isoxadifen-ethyl] are 15.7 min and 15.4 min.
For the compound `Nc1ccc(Cc2ccc(N)cc2)cc1` [4,4'-Methylenedianiline], the LC retention time in data set [1] was 10.7 min; in data set [2], 5.44 min.
With `CC(=O)Nc1c(I)c(NC(C)=O)c(I)c(C(=O)O)c1I` [Diatrizoate], the LC retention time in data set [1] was 3.99 min; in data set [2], 4.47 min.
In the same order, the values of `CC[N+]1([O-])CCCC1CNC(=O)c1cc(S(N)(=O)=O)ccc1OC` (stereo unspecified) [Sulpiride N-Oxide] are 6.84 min and 6.62 min.
In the same order, the values of `CNC(CC(C)C)C(=O)NC1C(=O)NC(CC(N)=O)C(=O)NC2C(=O)NC3C(=O)NC(C(=O)NC(C(=O)O)c4cc(O)cc(O)c4-c4cc3ccc4O)C(O)c3ccc(c(Cl)c3)Oc3cc2cc(c3OC2OC(CO)C(O)C(O)C2OC2CC(C)(N)C(O)C(C)O2)Oc2ccc(cc2Cl)C1O` (stereo unspecified) [Vancomycin] are 8.6 min and 7.04 min.
In the same order, the values of `COCCCCC(=NOCCN)c1ccc(C(F)(F)F)cc1` [Fluvoxamine] are 15.3 min and 13.5 min.
With `CCc1ccc(CCOc2ccc(CC3SC(=O)NC3=O)cc2)nc1` (stereo unspecified) [Pioglitazone], the LC retention time in data set [1] was 13.3 min; in data set [2], 11.1 min.
On to `Cc1cc(C)c(C2=C(OC(=O)CC(C)(C)C)C3(CCCC3)OC2=O)c(C)c1` [Spiromesifen], for which the LC retention time in data set [1] was 17.7 min; in data set [2] it was 17.3 min.
In the same order, the values of `Cc1cccc2n[nH]nc12` [Tolyltriazole] are 14.6 min and 9.9 min.
With `COc1cc2nc(N(C)CCCNC(=O)C3CCCO3)nc(N)c2cc1OC` (stereo unspecified) [Alfuzosin], the LC retention time is 12.3 min in data set [1] and 9.73 min in data set [2].
With `CC1CC2C3CC(F)C4=CC(=O)C=CC4(C)C3C(O)CC2(C)C1(O)C(=O)CO` (stereo unspecified) [Paramethasone], the LC retention time was 13.5 min in data set [1] and 13.2 min in data set [2].
For `COCCCNc1nc(NC(C)C)nc(SC)n1` [Methoprothryne] the same measures were 14.2 min and 13.1 min.
In the same order, the values of `CC(C)(C)NCC(O)COc1nsnc1N1CCOCC1` (stereo unspecified) [Timolol] are 13.2 min and 9.08 min.
In the same order, the values of `Oc1c(Cl)cc(-c2ccc(Cl)cc2)cc1Cl` [4-Hydroxy-3,4',5-trichlorobiphenyl] are 15.2 min and 16.9 min.
`CCc1cccc(C)c1N1C(=O)COCC1C` (stereo unspecified) [Metolachlor-morpholinone]: the LC retention time in data set [1] is 12.9 min; in data set [2], 12.6 min.
With `COc1cc2nc(N3CCN(C(=O)C4COc5ccccc5O4)CC3)nc(N)c2cc1OC` (stereo unspecified) [Doxazosin], the LC retention time in data set [1] was 14 min; in data set [2], 11.6 min.
For `Oc1cc(Cl)c(Cl)c(Cl)c1` [3,4,5-trichlorophenol] the same measures were 14.2 min and 15.2 min.
In the case of `CCCCOCCOCCOCCOCCO` [Tetraethyleneglycol monobutyl ether], the LC retention time in data set [1] is 12 min; in data set [2], 11.7 min.
As for `Cc1c(Cl)cccc1Nc1ccccc1C(=O)O` [Tolfenamics<e4>ure], the LC retention time in data set [1] was 14.4 min; in data set [2], 16.7 min.
As to `O=c1c(OC2OC(CO)C(O)C(O)C2O)c(-c2ccc(O)c(O)c2)oc2cc(O)cc(O)c12` (stereo unspecified) [Hyperoside], the LC retention time was 6.8 min in data set [1] and 9.67 min in data set [2].
Regarding `CCNc1nc(NC(C)CC)[nH]c(=O)n1` (stereo unspecified) [Sebuthylazine-2-hydroxy], the LC retention time in data set [1] is 12 min; in data set [2], 9.91 min.
In the same order, the values of `Nc1cccc2c(N)cccc12` [1,5-Naphthalenediamine] are 6.92 min and 2.7 min.
As for `CN1C2CC(OC(=O)C(CO)c3ccccc3)CC1C1OC12` (single isomer, unassigned; (-)) [(-)-Scopolamine], the LC retention time in data set [1] was 11.2 min; in data set [2], 7.05 min.
In the same order, the values of `CCCCOC(=O)COC(=O)c1ccccc1C(=O)OCCCC` [2-Butoxy-oxoethylbutylphthalate] are 16.6 min and 16.2 min.
In the case of `Cc1ccc(-c2c(Cl)nc(C#N)n2S(=O)(=O)N(C)C)cc1` [Cyazofamid], the LC retention time in data set [1] is 15.3 min; in data set [2], 15 min.
Turning to `CNC(=O)Oc1cc(C)c(S(C)(=O)=O)c(C)c1` [Methiocarb sulfone], the values for the LC retention time in data set [1] and in data set [2] were 9.75 min and 9.58 min, respectively.
For `NC(=O)N1c2ccccc2CC(O)c2ccccc21` (stereo unspecified) [10,11-Dihydro-10-hydroxycarbamazepine] the same measures were 10.9 min and 10.7 min.
For `CCC(=O)OC1(C(=O)SCF)C(C)CC2C3CC(F)C4=CC(=O)C=CC4(C)C3(F)C(O)CC21C` (stereo unspecified) [Fluticasone propionate], the results for the LC retention time in data set [1] and in data set [2] were 15.6 min and 15.3 min, respectively.
`CC1CCc2cc(F)cc3c(=O)c(C(=O)O)cn1c23` (stereo unspecified) [Flumequine]: the LC retention time in data set [1] is 8.91 min; in data set [2], 11.8 min.
Take `CN(CC=CC#CC(C)(C)C)Cc1cccc2ccccc12` [Terbinafine]: the LC retention time in data set [1] is 18.7 min; in data set [2], 14 min.
In the same order, the values of `CCCCCCCCCCCC(=O)N(CCO)CCO` [Lauryl diethanolamide] are 16.8 min and 16.4 min.
For `CC(C)(C)c1ccc(C(=O)CCCN2CCC(OC(c3ccccc3)c3ccccc3)CC2)cc1` [Ebastin] the same measures were 18.8 min and 15.9 min.
`COc1cc2c(c(OC)c1OC)-c1ccc(OC)c(=O)cc1C(NC(C)=O)CC2` (stereo unspecified) [Colchicine]: the LC retention time in data set [1] is 11.6 min; in data set [2], 11.4 min.
In the same order, the values of `COC(=O)C1=COC(C)C2CN3CCc4c([nH]c5ccccc45)C3CC12` (stereo unspecified) [Ajmalicine] are 15.5 min and 10.1 min.
On to `CC12CCC(=O)C=C1CCC1C2CCC2(C)C1CCC2(C)O` (stereo not drawn) [17alpha-Methyltestosterone], for which the LC retention time in data set [1] is 15 min; in data set [2], 14.7 min.
`Clc1ccccc1C(c1ccccc1)(c1ccccc1)n1ccnc1` [Clotrimazole]: the LC retention time was 16.7 min in data set [1] and 13.9 min in data set [2].
Take `CC(C)CC(C)Nc1ccc(Nc2ccccc2)cc1` (stereo unspecified) [N-(1,3-Dimethylbutyl)-N'-phenyl-1,4-phenylenediamine]: the LC retention time in data set [1] is 17.2 min; in data set [2] it was 13.3 min.
For `CN(C)C(=O)C(CCN1CCC(O)(c2ccc(Cl)cc2)CC1)(c1ccccc1)c1ccccc1` [Loperamide], the figures for the LC retention time in data set [1] and in data set [2] were 16.3 min and 13.7 min, respectively.
In the same order, the values of `CC12CC3CC(C)(C1)CC(N)(C3)C2` [Memantine] are 13.7 min and 11.9 min.
With `CC1CCCC(=O)CCCC=Cc2cc(O)cc(O)c2C(=O)O1` (stereo unspecified) [Zearalenone], the LC retention time is 14.1 min in data set [1] and 14.4 min in data set [2].
In the same order, the values of `CNC(=O)ON=CC(C)(C)S(C)=O` (stereo unspecified) [Aldicarb Sulfoxide] are 6.62 min and 6.57 min.
For `CC(C)c1nc(CN(C)C(=O)NC(C(=O)NC(Cc2ccccc2)CC(O)C(Cc2ccccc2)NC(=O)OCc2cncs2)C(C)C)cs1` (stereo unspecified) [Ritonavir] the same measures were 16.3 min and 15.9 min.
In the same order, the values of `NC(=O)c1c(Cl)cccc1Cl` [2,6-Dichlorobenzamide] are 7.59 min and 7.57 min.
Turning to `COC(C)C(O)(C(=O)OCC1=CCN2CCC(O)C12)C(C)C` (stereo unspecified) [Heliotrine], the LC retention time in data set [1] was 11.6 min; in data set [2], 8.05 min.
Regarding `CCN1CCCC1CNC(=O)c1cc(S(N)(=O)=O)ccc1OC` (stereo not drawn) [(s)-(-)-Sulpiride], the LC retention time in data set [1] was 10.3 min; in data set [2], 6.03 min.
Take `COCC(=O)N(c1c(C)cccc1C)N1CCOC1=O` [Oxadixyl]: the LC retention time in data set [1] was 11.2 min; in data set [2], 11 min.
In the same order, the values of `CCOP(=O)(OCC)OC(=CCl)c1ccc(Cl)cc1Cl` [Chlorfenvinphos] are 16.1 min and 15.8 min.
On to `CC(C)(C)NC(=O)C1CCC2C3CCC4NC(=O)C=CC4(C)C3CCC12C` (stereo unspecified) [Finasteride], for which the LC retention time in data set [1] was 14.9 min; in data set [2], 14.6 min.
In the same order, the values of `NC(=Nc1ccccc1)Nc1ccccc1` [1,3-Diphenylguanidine] are 10 min and 8.76 min.
For `CCCCCCCCCCSCCOCCO` [2(2(decylsulfanyl)ethoxy)ethanol] the same measures were 18.1 min and 17.7 min.
For `CS(=O)(=O)c1ccc(C(=O)C2C(=O)CCCC2=O)c(Cl)c1COCC(F)(F)F` [Tembotrione] the same measures were 15.6 min and 13.4 min.
